PubChem BioAssay AID328 (DTP/NCI, 2004)
Several values for one entry are separate records, joined by “and”; a condition that tells them apart may be missing. Equal values may be shown once. Toxic doses and inconclusive results are not listed. The calls were made as follows: active = survival T/C of 150% or more; inactive = T/C below 125% in these data.

Test system: BDF1 mice, P388 leukemia ip, median survival T/C
Assay: NCI In Vivo Anticancer Drug Screen. Data for tumor model P388 Leukemia (intraperitoneal) in B6D2F1 (BDF1) mice
Conditions: endpoint: median survival time, higher = longer survival
Outline: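 Reported as T/C, where T is the survival measurement in dosed animals and C the same measurement in vehicle controls.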

[1] = dose: 1.56 mg/kg/injection, schedule: Q01DX009 (ip), vehicle: saline
[2] = dose: 6.25 mg/kg/injection, schedule: Q01DX009 (ip), vehicle: saline
[3] = dose: 12.5 mg/kg/injection, schedule: Q01DX009 (ip), vehicle: saline
[4] = dose: 25.0 mg/kg/injection, schedule: Q01DX009 (ip), vehicle: saline with Tween-80
[5] = dose: 100.0 mg/kg/injection, schedule: Q01DX001 (ip), vehicle: saline with Tween-80
[6] = dose: 200.0 mg/kg/injection, schedule: Q01DX001 (ip), vehicle: saline with Tween-80
[7] = dose: 400.0 mg/kg/injection, schedule: Q01DX001 (ip), vehicle: saline with Tween-80
[8] = dose: 50.0 mg/kg/injection, schedule: Q01DX009 (ip), vehicle: saline
[9] = dose: 100.0 mg/kg/injection, schedule: Q01DX009 (ip), vehicle: saline
[10] = dose: 100.0 mg/kg/injection, schedule: Q01DX009 (ip), vehicle: Klucel (hydroxypropylcellulose) (HPC)
[11] = dose: 50.0 mg/kg/injection, schedule: Q01DX009 (ip), vehicle: saline with Tween-80
[12] = dose: 100.0 mg/kg/injection, schedule: Q01DX009 (ip), vehicle: saline with Tween-80
[13] = dose: 200.0 mg/kg/injection, schedule: Q01DX009 (ip), vehicle: saline with Tween-80
[14] = dose: 100.0 mg/kg/injection, schedule: Q04DX003 (ip), vehicle: saline with Tween-80
[15] = dose: 200.0 mg/kg/injection, schedule: Q04DX003 (ip), vehicle: saline with Tween-80
[16] = dose: 400.0 mg/kg/injection, schedule: Q04DX003 (ip), vehicle: saline with Tween-80
[17] = dose: 100.0 mg/kg/injection, schedule: Q01DX001 (ip), vehicle: Klucel (hydroxypropylcellulose) (HPC)
[18] = dose: 200.0 mg/kg/injection, schedule: Q01DX001 (ip), vehicle: Klucel (hydroxypropylcellulose) (HPC)

Measured: T/C

CC(=N/NC(=S)NCCN1CCCCC1)/C(C)=N\NC(=S)NCCN1CCCCC1
inactive: dose: 0.78 mg/kg/injection, schedule: Q01DX009 (ip), vehicle: saline 90 % of control | [1] 98 % of control | dose: 3.13 mg/kg/injection, schedule: Q01DX009 (ip), vehicle: saline 98 % of control and 121 % of control | [2] 105 % of control and 109 % of control | [3] 103 % of control

C1CN2CCC1CC2
inactive: dose: 12.5 mg/kg/injection, schedule: Q01DX009 (ip), vehicle: saline with Tween-80 107 % of control | dose: 22.0 mg/kg/injection, schedule: Q01DX009 (ip), vehicle: saline with Tween-80 101 % of control | [4] 119 % of control | dose: 33.0 mg/kg/injection, schedule: Q01DX009 (ip), vehicle: saline with Tween-80 122 % of control

CCc1c(Cl)c(C)cc(O)c1Cl
inactive: dose: 18.0 mg/kg/injection, schedule: Q01DX009 (ip), vehicle: gum acacia 112 % of control | dose: 25.0 mg/kg/injection, schedule: Q01DX009 (ip), vehicle: gum acacia 112 % of control | dose: 25.0 mg/kg/injection, schedule: Q04DX003 (ip), vehicle: gum acacia 88 % of control | dose: 50.0 mg/kg/injection, schedule: Q01DX009 (ip), vehicle: gum acacia 100 % of control | dose: 50.0 mg/kg/injection, schedule: Q04DX003 (ip), vehicle: gum acacia 92 % of control | dose: 100.0 mg/kg/injection, schedule: Q04DX003 (ip), vehicle: gum acacia 96 % of control

O=C1c2c(Cl)c(Cl)c(Cl)c(Cl)c2C(=O)N1c1ccc(-c2ccccc2)cc1
inactive: dose: 43.7 mg/kg/injection, schedule: Q01DX009 (ip), vehicle: saline with Tween-80 101 % of control | dose: 87.5 mg/kg/injection, schedule: Q01DX009 (ip), vehicle: saline with Tween-80 101 % of control | dose: 175.0 mg/kg/injection, schedule: Q01DX009 (ip), vehicle: saline with Tween-80 99 % of control

Nc1cccc(/C=C/c2ccnc3ccccc23)c1
inactive: dose: 25.0 mg/kg/injection, schedule: Q01DX001 (ip), vehicle: saline with Tween-80 97 % of control | dose: 50.0 mg/kg/injection, schedule: Q01DX001 (ip), vehicle: saline with Tween-80 97 % of control | [5] 93 % of control and 110 % of control | [6] 119 % of control | [7] 102 % of control

CCC1OCCN1C(C)C (centres undefined)
inactive: [8] 108 % of control | [9] 108 % of control

COc1ccccc1/C=N\NC(C)=O
inactive: dose: 25.0 mg/kg/injection, schedule: Q01DX009 (ip), vehicle: Klucel (hydroxypropylcellulose) (HPC) 96 % of control | dose: 25.0 mg/kg/injection, schedule: Q04DX003 (ip), vehicle: Klucel (hydroxypropylcellulose) (HPC) 86 % of control | dose: 50.0 mg/kg/injection, schedule: Q01DX009 (ip), vehicle: Klucel (hydroxypropylcellulose) (HPC) 107 % of control | [10] 92 % of control | dose: 100.0 mg/kg/injection, schedule: Q04DX003 (ip), vehicle: Klucel (hydroxypropylcellulose) (HPC) 86 % of control

CC1(C)OC1CC1=CC(=O)C=CC1=O (centres undefined)
inactive: [4] 108 % of control | [11] 103 % of control | [12] 100 % of control | [13] 117 % of control

CCCCN(C(=O)C(F)(F)F)C(C)(C)C(SSSC(c1cccs1)C(C)(C)N(CCCC)C(=O)C(F)(F)F)c1cccs1 (centres undefined)
inactive: [14] 109 % of control

Cn1c2ccccc2c(=S)c2ccccc21
inactive: [5] 89 % of control | [6] 90 % of control

CCCCCCOc1cccc(OCCCC[N+]2(CC)CCCCC2)c1
inactive: [2] 108 % of control

COB(C1CCCCC1)C1CCCCC1
inactive: dose: 75.0 mg/kg/injection, schedule: Q01DX001 (ip), vehicle: saline 113 % of control | dose: 150.0 mg/kg/injection, schedule: Q01DX001 (ip), vehicle: saline 104 % of control | dose: 300.0 mg/kg/injection, schedule: Q01DX001 (ip), vehicle: saline 95 % of control

CC1COB(c2ccccc2)OCC(C)N1CNC(=O)C1=C(O)C2(O)C(O)=C3C(=O)C4C(O)=CC=CC4C(C)(O)C3CC2C(N(C)C)C1=O (centres undefined)
inactive: [8] 109 % of control | [9] 98 % of control | dose: 200.0 mg/kg/injection, schedule: Q01DX009 (ip), vehicle: saline 111 % of control

C=CCCCCCCCCC(=O)N(CC#N)CC(C)C
inactive: [11] 100 % of control | [12] 109 % of control | [13] 109 % of control

c1cc2cnc3cccc4cnc(c1)c2c43
inactive: dose: 100.0 mg/kg/injection, schedule: Q01DX001 (ip), vehicle: saline sonified 100 % of control | dose: 400.0 mg/kg/injection, schedule: Q01DX001 (ip), vehicle: saline sonified 100 % of control

Cc1ccc(S(=O)(=O)CC([Se]C#N)c2ccccc2)cc1 (centres undefined)
inactive: [14] 105 % of control | [15] 92 % of control | [16] 89 % of control

O=S1(=O)C(Cc2ccccc2)CCCN1c1ccccc1 (centres undefined)
inactive: dose: 100.0 mg/kg/injection, schedule: Q04DX002 (ip), vehicle: saline with Tween-80 104 % of control | dose: 200.0 mg/kg/injection, schedule: Q04DX002 (ip), vehicle: saline with Tween-80 104 % of control | dose: 400.0 mg/kg/injection, schedule: Q04DX002 (ip), vehicle: saline with Tween-80 102 % of control

C[N+](C)=C1C=CC(=C2C=CSC=C2)C=C1
inactive: [1] 117 % of control | dose: 3.12 mg/kg/injection, schedule: Q01DX009 (ip), vehicle: saline 124 % of control | [2] 123 % of control | [3] 100 % of control

Nc1nc(SCc2ccccn2)c2[nH]cnc2n1
inactive: dose: 20.0 mg/kg/injection, schedule: Q04DX003 (ip), vehicle: Klucel (hydroxypropylcellulose) (HPC) 104 % of control | dose: 30.0 mg/kg/injection, schedule: Q04DX003 (ip), vehicle: Klucel (hydroxypropylcellulose) (HPC) 104 % of control | dose: 44.0 mg/kg/injection, schedule: Q04DX003 (ip), vehicle: Klucel (hydroxypropylcellulose) (HPC) 104 % of control | [10] 107 % of control | dose: 200.0 mg/kg/injection, schedule: Q01DX009 (ip), vehicle: Klucel (hydroxypropylcellulose) (HPC) 92 % of control

CN=S(=O)(OCCCCOS(=O)(=NC)c1ccc(C)cc1)c1ccc(C)cc1 (centres undefined)
active: [16] 152 % of control

Cc1cc(C)c(S(=O)(=O)OCCCl)c(C)c1
inactive: dose: 50.0 mg/kg/injection, schedule: Q01DX005 (ip), vehicle: Klucel (hydroxypropylcellulose) (HPC) 106 % of control | dose: 100.0 mg/kg/injection, schedule: Q01DX005 (ip), vehicle: Klucel (hydroxypropylcellulose) (HPC) 95 % of control

O=C1CSc2ccccc2N1
inactive: dose: 50.0 mg/kg/injection, schedule: Q01DX001 (ip), vehicle: Klucel (hydroxypropylcellulose) (HPC) 109 % of control | [17] 100 % of control | [18] 116 % of control

c1ccc(-c2[nH]c3ccccc3c2-c2ccccc2)cc1
inactive: [17] 109 % of control | [18] 113 % of control | dose: 400.0 mg/kg/injection, schedule: Q01DX001 (ip), vehicle: Klucel (hydroxypropylcellulose) (HPC) 122 % of control

O=[N+]([O-])c1ccc(NC2CCCCC2)c2c1no[n+]2[O-]
inactive: [2] 95 % of control | [3] 97 % of control | dose: 25.0 mg/kg/injection, schedule: Q01DX009 (ip), vehicle: saline 95 % of control

C#CCN(C)CCO
inactive: dose: 100.0 mg/kg/injection, schedule: Q01DX001 (ip), vehicle: saline 105 % of control | dose: 100.0 mg/kg/injection, schedule: Q04DX003 (ip), vehicle: alcohol 90 % of control | dose: 200.0 mg/kg/injection, schedule: Q01DX001 (ip), vehicle: saline 95 % of control | dose: 200.0 mg/kg/injection, schedule: Q04DX003 (ip), vehicle: alcohol 100 % of control | dose: 400.0 mg/kg/injection, schedule: Q01DX001 (ip), vehicle: saline 100 % of control | dose: 400.0 mg/kg/injection, schedule: Q04DX003 (ip), vehicle: alcohol 100 % of control

CCC(CCC(C)C1CCC2C3CC=C4CC(O)CCC4(C)C3CCC12C)C(C)C (centres undefined) (tested in a mixture with another compound)
inactive: dose: 12.5 mg/kg/injection, schedule: Q#A X020 (ip), vehicle: water 90 % of control

Clc1ccccc1CCCBr
inactive: [14] 95 % of control | [15] 100 % of control | [16] 105 % of control

O=c1[nH]ccn2cnnc12
inactive: [5] 95 % of control | [6] 95 % of control | [7] 104 % of control
